Square brackets hold non-standard residues; d marks the D form. * marks the point of attachment. 2Nal = N[C@@H](Cc1ccc2ccccc2c1)C(=O)O; Propionyl = CCC(=O)*; Sar = CNCC(=O)O
Assays:
[1] = system: CD2F1 mice exposed to TBI (7 Gy); experiment: Sternal bone marrow histopathology (cellularity, megakaryocytes) after 7 Gy TBI; type: in vivo, mouse; conditions: day 7 post-TBI 7 Gy; 24 h pre-TBI administration
Experimental: Sternal histopathology: Following blood collection, animals were euthanized, and the sterna were collected on 0 (2 h post-TBI), 1, 3, 7, 15 and 30 days post-TBI. The sterna were fixed in a 20:1 volume of fixative (10^0/% buffered formalin) to tissue for at least 24 h and up to 7 days. Fixed sterna were decalcified for 3 h in 12-18% sodium EDTA (pH 7.4-7.5), and specimens were dehydrated using graded ethanol concentrations and embedded in paraffin. Longitudinal 5 μm sections were stained with regular hematoxylin and eosin (H&E) stain. A board-certified veterinary pathologist conducted blinded histopathological evaluation of these samples. The bone marrow was evaluated in situ within sternebrae and graded for total cellularity and megakaryocyte numbers averaged per 10 high power fields at 40× magnification using a BX41 Olympus microscope (Olympus Corporation, Minneapolis, Minn.). […]
Bone marrow cellularity and architecture of CD2F1 mice treated 24 h pre-TBI with vehicle or RWJ-800088 were evaluated by the AFRRI pathologist (FIG. 8). Bone marrow cellularity was determined by evaluating the amount of adipose (fat) tissue versus hematopoietic cells (minus, mature red blood cells) on one (10×) high power field (HPF). […]
Samples were collected on different days post-TBI up to day 30. […] Megakaryocytes were evaluated by averaging the number of cells per 10 (40×) high power fields (HPFs). […]

[2] = system: CD2F1 male mice exposed to supra-lethal TBI; experiment: Survival and recovery from gastrointestinal injury at supra-lethal TBI; type: in vivo, mouse
Experimental: Data are expressed as mean±Standard error of mean (SEM). Irradiated TPOm group compared with saline treated group, statistical significance by Student T test (p≤0.0001)
Bacterial translocation was determined as bacterial load in liver and spleen tissue as a result of radiation injury to the intestines and was quantified by real-time polymerase chain reaction (PCR) using the 16S rRNA gene consensus sequence. Naïve jejunum serves as a positive control and naïve spleen and liver serve as negative controls/baseline values. Data are expressed as mean±Standard error of mean (SEM). Irradiated TPOm group compared with saline treated group, statistical significance by Student T test (p≤0.0001).
Data are expressed as mean±Standard error of mean (SEM). Irradiated TPOm group compared with saline treated group, statistical significance by Student T test (p≤0.0001). Serum amaloyd A (SAA) and pro-calcitonin (PCT), sepsis markers, were both measured by ELISA.
Jejunum samples were collected at days 1, 3, 7, 9 post-TBI. Representative sections were stained with H&E. There was a 100% increased survival in the RWJ-800088 treated mice compared to the saline treated animals (FIG. 9A—Kaplan Meier plot).

methoxypolyethyleneglycol20000-propionyl-L-Isoleucyl-L-Glutamyl-Glycyl-L-Prolyl-L-Threonyl-L-Leucyl-L-Arginyl-L-Glutaminyl-L-2-Naphthylalanyl-L-Leucyl-L-Alanyl-L-Alanyl-L-Arginyl-Sarcosyl-Ne-(methoxypolyethyleneglycol20000-propionyl-L-Isoleucyl-L-Glutamyl-Glycyl-L-Prolyl-L-Threonyl-L-Leucyl-L-Arginyl-L-Glutaminyl-L-2-Naphthylalanyl-L-Leucyl-L-Alanyl-L-Alanyl-L-Arginyl-Sarcosyl-)-Lysinamide ({mPEG 20 kDa-Propionyl}-IEGPTLRQ[2Nal]LAAR[Sar]K-NH2; also: dimer: second identical mPEG-propionyl chain on Lys Nε of C-terminal lysinamide) [RWJ-800088]
megakaryocytes counts in sternal bone marrow [1]: significant recovery
bacterial translocation to the liver and spleen ([2]; 1 mg/kg 24 hours prior to TBI (12.5 Gy per FIG. 10 legend)): significantly reduced
number of viable crypts in jejunum ([2]; 11 Gy, 1 mg/kg 24 h prior to TBI (FIG. 9C)): significant increase
increased survival compared to saline treated animals ([2]; 11 Gy, 1 mg/kg 24 h prior to TBI, 8 mice/group/time point (FIG. 9A)): 100%
circulating sepsis biomarkers, serum amyloid A and procalcitonin ([2]; nine days post-TBI 11 Gy, 1 mg/kg 24 hours prior to TBI): significant reduction
